The values below come from ChEMBL document CHEMBL1909046, “DrugMatrix in vitro pharmacology data”.

Assay [1] in a line: DRUGMATRIX: Nicotinic Acetylcholine radioligand binding (ligand: [125I] Epibatidine). Type of assay: cell membranes, Membrane. The note with it: imr-32; Not Active = under 50% inhibition at 10 µM.
The nature of assay [2]: DRUGMATRIX: Leukotriene, BLT (LTB4) radioligand binding (ligand: [3H]LTB4). The class given is cell membranes, Membrane. The note with it: u-937; Not Active = under 50% inhibition at 10 µM.
For assay [3], the target named is Sodium-dependent dopamine transporter (Homo sapiens, UniProt Q01959). Nature of the assay: DRUGMATRIX: Dopamine Transporter radioligand binding (ligand: [125I] RTI-55). Type of assay: cell membranes, CHO-K1, Membrane. The note with it: Not Active = under 50% inhibition at 10 µM.
Sequence of Sodium-dependent dopamine transporter (Q01959 whole entry): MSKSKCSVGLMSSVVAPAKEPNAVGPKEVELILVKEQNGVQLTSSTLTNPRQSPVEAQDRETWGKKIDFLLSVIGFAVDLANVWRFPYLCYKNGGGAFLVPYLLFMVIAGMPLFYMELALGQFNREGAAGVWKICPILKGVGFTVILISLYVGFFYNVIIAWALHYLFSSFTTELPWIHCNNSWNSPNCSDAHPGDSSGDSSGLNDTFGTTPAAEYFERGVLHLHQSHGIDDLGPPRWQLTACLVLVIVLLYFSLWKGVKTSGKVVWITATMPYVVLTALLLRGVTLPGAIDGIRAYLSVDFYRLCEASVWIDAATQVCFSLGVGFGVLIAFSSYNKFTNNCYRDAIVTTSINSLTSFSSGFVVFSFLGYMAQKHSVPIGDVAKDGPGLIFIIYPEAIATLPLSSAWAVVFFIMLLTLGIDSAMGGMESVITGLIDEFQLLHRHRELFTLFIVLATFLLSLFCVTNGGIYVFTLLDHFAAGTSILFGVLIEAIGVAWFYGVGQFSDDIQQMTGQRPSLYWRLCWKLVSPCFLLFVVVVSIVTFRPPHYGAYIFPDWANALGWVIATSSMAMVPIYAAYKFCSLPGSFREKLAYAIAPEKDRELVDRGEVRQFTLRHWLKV
For assay [4], the target named is T1, 5-hydroxytryptamine receptor 1A (Rattus norvegicus, UniProt P19327). Also: in other assays of this panel Not Active means under 50% inhibition at 10 µM.
T1 sequence (P19327 whole entry): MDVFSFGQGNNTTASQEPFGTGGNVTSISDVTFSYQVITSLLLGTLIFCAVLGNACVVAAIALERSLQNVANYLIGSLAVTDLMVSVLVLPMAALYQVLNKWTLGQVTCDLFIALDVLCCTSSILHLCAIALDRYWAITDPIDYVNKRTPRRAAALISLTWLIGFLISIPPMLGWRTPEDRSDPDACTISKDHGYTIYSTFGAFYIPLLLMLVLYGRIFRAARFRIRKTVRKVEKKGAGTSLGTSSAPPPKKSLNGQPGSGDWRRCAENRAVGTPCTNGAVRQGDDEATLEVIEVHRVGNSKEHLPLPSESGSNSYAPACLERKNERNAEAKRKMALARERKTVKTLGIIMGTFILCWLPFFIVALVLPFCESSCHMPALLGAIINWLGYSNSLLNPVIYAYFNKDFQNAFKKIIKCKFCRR
The class given is cell membranes, CHO-K1, Membrane. Particulars: cho-k1.

For a further assay, the target named is T2, Estrogen receptor (Homo sapiens, UniProt P03372). Also: in other assays of this panel Not Active means under 50% inhibition at 10 µM.
T2 sequence (P03372 whole entry): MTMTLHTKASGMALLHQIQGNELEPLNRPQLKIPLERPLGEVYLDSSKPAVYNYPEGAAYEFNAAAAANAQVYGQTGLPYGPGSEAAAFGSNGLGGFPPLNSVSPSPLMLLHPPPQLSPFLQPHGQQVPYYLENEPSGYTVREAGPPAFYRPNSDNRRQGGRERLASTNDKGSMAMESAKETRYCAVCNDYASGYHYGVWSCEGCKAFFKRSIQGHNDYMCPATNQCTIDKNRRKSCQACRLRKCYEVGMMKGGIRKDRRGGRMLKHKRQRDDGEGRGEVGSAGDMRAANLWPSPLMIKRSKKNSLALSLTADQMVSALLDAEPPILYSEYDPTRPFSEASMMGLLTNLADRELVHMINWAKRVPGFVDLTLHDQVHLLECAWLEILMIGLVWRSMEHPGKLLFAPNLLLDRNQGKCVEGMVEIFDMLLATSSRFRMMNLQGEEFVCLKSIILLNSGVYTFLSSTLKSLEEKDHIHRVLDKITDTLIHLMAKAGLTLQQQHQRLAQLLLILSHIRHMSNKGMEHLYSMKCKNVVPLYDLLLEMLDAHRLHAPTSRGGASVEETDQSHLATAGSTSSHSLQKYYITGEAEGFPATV
The note with it: sf9.

For the next assay, the target named is T3, Caspase-1 (Homo sapiens, UniProt P29466).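 Also: Caspase-1 enzyme inhibition assay with a peptide substrate; in other assays of this panel Not Active means under 50% inhibition at 10 µM.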
T3 sequence (P29466 whole entry): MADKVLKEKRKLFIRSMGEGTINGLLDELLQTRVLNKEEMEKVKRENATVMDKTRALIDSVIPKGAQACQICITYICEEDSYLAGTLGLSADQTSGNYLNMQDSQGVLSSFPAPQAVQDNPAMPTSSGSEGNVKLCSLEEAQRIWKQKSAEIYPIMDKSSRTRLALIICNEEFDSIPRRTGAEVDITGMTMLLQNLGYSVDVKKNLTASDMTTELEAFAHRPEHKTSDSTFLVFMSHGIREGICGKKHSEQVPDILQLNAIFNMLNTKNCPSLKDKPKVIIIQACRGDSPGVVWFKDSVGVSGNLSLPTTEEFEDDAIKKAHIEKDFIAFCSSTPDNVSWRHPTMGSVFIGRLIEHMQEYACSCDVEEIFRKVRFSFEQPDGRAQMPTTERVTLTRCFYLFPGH
More on the design: species or system Escherichia coli.

Assay [5] has as its target Platelet-activating factor receptor (Homo sapiens, UniProt P25105). Type of assay: tissue-based. Also: in other assays of this panel Not Active means under 50% inhibition at 10 µM.

SMILES strings stand for the structures.

Sequence of Platelet-activating factor receptor (P25105 whole entry): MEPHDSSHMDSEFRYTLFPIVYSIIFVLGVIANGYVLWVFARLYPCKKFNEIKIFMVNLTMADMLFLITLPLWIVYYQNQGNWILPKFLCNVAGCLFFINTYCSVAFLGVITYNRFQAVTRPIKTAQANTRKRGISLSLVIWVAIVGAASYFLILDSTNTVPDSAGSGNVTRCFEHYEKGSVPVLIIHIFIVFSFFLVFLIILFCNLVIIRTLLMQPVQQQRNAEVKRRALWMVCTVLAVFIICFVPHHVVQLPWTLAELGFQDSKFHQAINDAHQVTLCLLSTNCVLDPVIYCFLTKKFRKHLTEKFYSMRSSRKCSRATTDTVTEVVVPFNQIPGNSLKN

Turning to `CC1(C)S[C@@H]2[C@H](NC(=O)Cc3ccccc3)C(=O)N2[C@H]1C(=O)O` [PENICILLIN G], the IC50 result (in assay [1]; in assay [2]; in assay [3] (cho-k1); in assay [4]; against Estrogen receptor; at Caspase-1) was “Not Active” throughout. Moreover, the 50% inhibitory concentration (IC50) (as a rule, the midpoint of a concentration-inhibition curve) in assay [5] was “Not Active”. The Ki result in assay [1] and in assay [2] was “Not Active” in each case.

For the compound `CCCCN1CCCC[C@H]1C(=O)Nc1c(C)cccc1C` [LEVOBUPIVACAINE], the IC50 result (in assay [1]; in assay [2]; in assay [3] (cho-k1); in assay [4]; against Estrogen receptor; against Caspase-1) was “Not Active” each time. Also, in assay [5], the IC50 entry is on record as “Not Active”. Also, the Ki result in assay [1] and in assay [2] was “Not Active” each time.

`Cc1onc(O)c1CC(N)C(=O)O` (racemic) [(R,S)-AMPA]: the IC50 result (in assay [1]; in assay [2]; in assay [3] (cho-k1); in assay [4]; at Estrogen receptor; against Caspase-1) was “Not Active” in each case. The IC50 entry in assay [5] is “Not Active”. Besides, the inhibitory constant (Ki) entry in assay [1] and in assay [2] was “Not Active” each time.

In the case of `CC1CC(OC(=O)C(O)c2ccccc2)CC(C)(C)C1` (stereo not given) [CYCLANDELATE], the concentration for half-maximal inhibition (IC50) result (in assay [1]; in assay [2]; in assay [3] (cho-k1); in assay [4]; against Estrogen receptor; at Caspase-1) was “Not Active” in each case. In assay [5], the IC50 result is on record as “Not Active”. The Ki entry in assay [1] and in assay [2] was “Not Active” in each case.

Regarding `Cc1ccc(-c2cc(C(F)(F)F)nn2-c2ccc(S(N)(=O)=O)cc2)cc1` [CELECOXIB], the IC50 entry in assay [1] was “Not Active”; in assay [2], “Not Active”; in assay [3] (read-out: IC50) it was 2430 nM; in assay [4], “Not Active”; at Estrogen receptor it was “Not Active”; on Caspase-1, “Not Active”. Besides, the concentration for half-maximal inhibition (IC50) entry in assay [5] is reported as “Not Active”. The inhibition constant (Ki) – broadly, a measure of affinity in units of concentration, obtained from inhibition or displacement – was “Not Active” in assay [1], “Not Active” in assay [2] and 1930 nM in assay [3] (read-out: Ki).

On to `c1ccc(Nc2ccc(Nc3ccccc3)cc2)cc1`, for which the IC50 result (in assay [1]; in assay [2]; in assay [3] (cho-k1); in assay [4]; against Estrogen receptor; against Caspase-1) was “Not Active” in each case. Also, the half-inhibitory concentration (IC50) result in assay [5] is listed as “Not Active”. For the same compound, the Ki entry in assay [1] and in assay [2] was “Not Active” in each case.

Consider `Cc1onc(-c2ccccc2Cl)c1C(=O)N[C@@H]1C(=O)N2[C@@H]1SC(C)(C)[C@@H]2C(=O)O` [CLOXACILLIN], for which the concentration for half-maximal inhibition (IC50) result (in assay [1]; in assay [2]; in assay [3] (cho-k1); in assay [4]; against Estrogen receptor; on Caspase-1) was “Not Active” each time. Besides, in assay [5], the IC50 result is “Not Active”. Besides, the Ki result in assay [1] and in assay [2] was “Not Active” throughout.

Regarding `CC1=C2C(=CO[C@H](C)[C@H]2C)C(O)=C(C(=O)O)C1=O` [CITRININ], the half-maximal inhibitory concentration (IC50) entry (in assay [1]; in assay [2]; in assay [3] (cho-k1); in assay [4]; against Estrogen receptor; against Caspase-1) was “Not Active” throughout. The IC50 entry in assay [5] is reported as “Not Active”. In addition, the Ki result in assay [1] and in assay [2] was “Not Active” in each case.

As to `CC(C)C(=O)Nc1ccc([N+](=O)[O-])c(C(F)(F)F)c1` [FLUTAMIDE], the half-inhibitory concentration (IC50) entry (in assay [1]; in assay [2]; in assay [3] (cho-k1); in assay [4]; against Estrogen receptor; on Caspase-1) was “Not Active” throughout. In assay [5], the IC50 entry is recorded as “Not Active”. The Ki entry in assay [1] and in assay [2] was “Not Active” in each case.

With `CC[C@@]1(O)C[C@H](O[C@H]2C[C@H](N(C)C)[C@H](O[C@H]3C[C@H](O)[C@H](O[C@H]4CCC(=O)[C@H](C)O4)[C@H](C)O3)[C@H](C)O2)c2c(cc3c(c2O)C(=O)c2c(O)cccc2C3=O)[C@H]1C(=O)OC` [ACLARUBICIN], the IC50 result (in assay [1]; in assay [2]; in assay [3] (cho-k1); in assay [4]; on Estrogen receptor; against Caspase-1) was “Not Active” in each case. In addition, the IC50 result in assay [5] is “Not Active”. Moreover, the Ki result in assay [1] and in assay [2] was “Not Active” in each case.

Regarding `Nc1nc2c(ncn2CCC(CO)CO)c(=O)[nH]1` [PENCICLOVIR], the IC50 result (in assay [1]; in assay [2]; in assay [3] (cho-k1); in assay [4]; on Estrogen receptor; against Caspase-1) was “Not Active” in each case. Also, the IC50 entry in assay [5] is reported as “Not Active”. Moreover, the Ki result in assay [1] and in assay [2] was “Not Active” throughout.
